Assay results as given in patent US20240299562A1 (priority 2020, published 2024).
pIC50: −log10 of the molar value. Where two headings read alike, the source gives them in different places. Where a SMILES comes first, the peptide text is derived from it.

Columns and labels:
A2058 cells = assay: WST-1 cell viability, A2058 melanoma cells; format: cell-based
Experimental: (§1) All commercial cell lines were purchased at ATCC (LGC Standards SARL, France). Cells were seeded in 96-well plates according to their optimal seeding density, varying between 5.000 and 10.000 cells/well. After attachment overnight, 10-point serial titrations (1:5) were prepared in their equivalent complete media as recommended by ATCC, starting from the 10 mM stock solutions. For doxorubicin comprising prodrugs dilutions started from 100 μM, while for the parent compound doxorubicin dilutions started at 10 μM. […] Seventy-two hours later, compounds were removed together with the supernatants and cells were washed once with PBS to remove excess drugs.
(§2) The WST-1 assay for cell proliferation and viability (Roche, Switzerland) was performed according to manufacturer's protocol. Absorbances were measured at 4 hrs using a Perkin Elmer Ensight multiplate reader, equipped with Kaleido 2.0 software (Perkin Elmer, USA). Cell viability was expressed as a percentage compared to non-treated cells. Absolute IC50 values were extrapolated from a non-linear fitting following the Sigmoidal-4PL regression method using Graphpad Prism 7.0. Likewise, maximal efficacy was determined as 100% minus the cell viability determined when cells are incubated in the presence of a compound. For instance, if 20% of the cells survive incubation in the presence of a compound, then the maximal efficacy of that compound is 100%-20%=80%.
(§3) Selectivity indices (SI) were defined as the ratio of the concentration of drug required to kill 50% of the cells in normal (control, non-cancer) cells, divided by the concentration required to exert the same efficacy in tumor cells: SI=IC50 (control cell)/IC50 (cancer cell), or SI=^HME-1IC50/cancer IC50.

U-87 MG cells = assay: WST-1 cell viability, U-87 MG glioblastoma cells; format: cell-based
Experimental: as §1, §2, §3

DU145 cells = assay: WST-1 cell viability, DU145 prostate cancer cells; format: cell-based
Experimental: as §1, §2, §3

MDA-MB-468 cells = assay: WST-1 cell viability, MDA-MB-468 triple negative breast cancer cells; format: cell-based
Experimental: as §1, §2, §3

HCT-116 cells = assay: WST-1 cell viability, HCT-116 colorectal cancer cells; format: cell-based
Experimental: as §1, §2, §3

NCI-1299 cells = assay: WST-1 cell viability, NCI-H1299 lung cancer cells; format: cell-based
Experimental: as §1, §2, §3

A-172 cells = assay: WST-1 cell viability, A-172 glioblastoma cells; format: cell-based
Experimental: as §1, §2, §3

[1] = WST-1 cell viability, normal HME-1 cells; format: cell-based, human; details: human; HME-1 normal cells; 72 hrs, WST-1 (Table 2); read-out: Maximal efficacy, cytotoxicity (%) at 100 μM
Experimental: as §1, §2, §3

HME-1 cells = assay: WST-1 cell viability, normal HME-1 cells; format: cell-based, human
Experimental: as §1, §2, §3

cancer cell lines = assay: In vitro potency and selectivity across a variety of cancer indications (WST-1); format: cell-based; details: 72 hrs
Experimental: as §1
as §2, with “For instance, if 20% of the cells survive incubation in the presence of a compound, then the maximal efficacy of that compound is 100%-20%=80%.” left out

MIA PaCa-2 cells = assay: WST-1 cell viability, MIA PaCa-2 pancreatic cancer cells; format: cell-based
Experimental: as §1, §2, §3

A2780 Cp cells = assay: WST-1 cell viability, A2780 CpR (cisplatin resistant) ovarian cancer cells; format: cell-based
Experimental: as §1, §2, §3

NCI-H292 cells = assay: WST-1 cell viability, NCI-H292 lung cancer cells; format: cell-based
Experimental: as §1, §2, §3

MDA-MB-231 cells = assay: WST-1 cell viability, MDA-MB-231 triple negative breast cancer cells; format: cell-based
Experimental: as §1, §2, §3

A2780 cells = assay: WST-1 cell viability, A2780 ovarian cancer cells; format: cell-based
Experimental: as §1, §2, §3

LS 174T cells = assay: WST-1 cell viability, LS 174T colorectal cancer cells; format: cell-based
Experimental: as §1, §2, §3

[2] = in mice; cited from earlier work
[3] = cited from earlier work
[4] = chronic treatment in rats, doses up to 8-fold higher; cited from earlier work
[5] = in dogs; cited from earlier work

For `COc1cccc2c1C(=O)c1c(O)c3c(c(O)c1C2=O)C[C@@](O)(C(=O)CO)C[C@@H]3O[C@H]1C[C@H](NC(=O)[C@@H]2CCCN2C(=O)[C@H](CCCCN)NC(=O)[C@@H]2CCCN2C(=O)[C@H](C)NC(=O)CP(=O)(O)O)[C@H](O)[C@H](C)O1` [PhAc-APKP-Dox] (HELM PEPTIDE1{[O=C(CP(=O)(O)O)[*:2]].A.P.K.P.[COc1cccc2c1C(=O)c1c(O)c3c(c(O)c1C2=O)C[C@@](O)(C(=O)CO)C[C@@H]3O[C@H]1C[C@H](N[*:1])[C@H](O)[C@H](C)O1]}$$$$V2.0), which “SI = HME-1 IC50/cancer IC50” value (A2058 cells; A2058 (Melanoma) vs HME-1 (Table 3)) is on record?
The value was 3.69.

What about the pIC50 (A2058 cells; A2058 (Melanoma), 72 hrs, WST-1 (Table 1), read-out: Absolute IC50) of the same compound?
Its pIC50 is 5.31.

And the “Maximal efficacy, cytotoxicity (%) at 100 μM” value (A2058 cells; A2058 (Melanoma), 72 hrs, WST-1 (Table 2))?
The value was 96.27%.

What about the “SI = HME-1 IC50/cancer IC50” value (U-87 MG cells; U-87 MG (GBM) vs HME-1 (Table 3)) of the same compound?
Its value is 1.46.

And the pIC50 (U-87 MG cells; U-87 MG (GBM), 72 hrs, WST-1 (Table 1), read-out: Absolute IC50)?
Its pIC50 is 4.91.

What about the “Maximal efficacy, cytotoxicity (%) at 100 μM” value (U-87 MG cells; U-87 MG (GBM), 72 hrs, WST-1 (Table 2)) of the same compound?
The value was 88.38%.

And the “SI = HME-1 IC50/cancer IC50” value (DU145 cells; DU145 (PrC) vs HME-1 (Table 3))?
Its value is 2.02.

What about the pIC50 (DU145 cells; DU145 (PrC), 72 hrs, WST-1 (Table 1), read-out: Absolute IC50) of the same compound?
Its pIC50 is 5.05.

What about the “Maximal efficacy, cytotoxicity (%) at 100 μM” value (DU145 cells; DU145 (PrC), 72 hrs, WST-1 (Table 2)) of the same compound?
The value was 91.93%.

And the “SI = HME-1 IC50/cancer IC50” value (MDA-MB-468 cells; MDA-MB-468 (TNBC) vs HME-1 (Table 3))?
Its value is 4.02.

What about the pIC50 (MDA-MB-468 cells; MDA-MB-468 (TNBC), 72 hrs, WST-1 (Table 1), read-out: Absolute IC50) of the same compound?
The pIC50 was 5.35.

And the “Maximal efficacy, cytotoxicity (%) at 100 μM” value (MDA-MB-468 cells; MDA-MB-468 (TNBC), 72 hrs, WST-1 (Table 2))?
Its value is 91.83%.

And the “SI = HME-1 IC50/cancer IC50” value (HCT-116 cells; HCT-116 (CrC) vs HME-1 (Table 3))?
The value was 1.47.

What about the pIC50 (HCT-116 cells; HCT-116 (CrC), 72 hrs, WST-1 (Table 1), read-out: Absolute IC50) of the same compound?
Its pIC50 is 4.91.

And the “Maximal efficacy, cytotoxicity (%) at 100 μM” value (HCT-116 cells; HCT-116 (CrC), 72 hrs, WST-1 (Table 2))?
Its value is 81.05%.

What about the “SI = HME-1 IC50/cancer IC50” value (NCI-1299 cells; NCI-1299 (NSCLC) vs HME-1 (Table 3)) of the same compound?
Its value is 1.72.

What about the pIC50 (NCI-1299 cells; NCI-1299 (NSCLC), 72 hrs, WST-1 (Table 1), read-out: Absolute IC50) of the same compound?
Its pIC50 is 4.98.

What about the “Maximal efficacy, cytotoxicity (%) at 100 μM” value (NCI-1299 cells; NCI-1299 (NSCLC), 72 hrs, WST-1 (Table 2)) of the same compound?
Its value is 75.52%.

What about the “SI = HME-1 IC50/cancer IC50” value (A-172 cells; A-172 (GBM) vs HME-1 (Table 3)) of the same compound?
Its value is 0.49.

And the pIC50 (A-172 cells; A-172 (GBM), 72 hrs, WST-1 (Table 1), read-out: Absolute IC50)?
The pIC50 was 4.43.

What about the “Maximal efficacy, cytotoxicity (%) at 100 μM” value (A-172 cells; A-172 (GBM), 72 hrs, WST-1 (Table 2)) of the same compound?
The value was 91.93%.

What about the cytotoxicity at 72 h, 100 µM [1] of the same compound?
Its cytotoxicity at 72 h, 100 µM is 81.5%.

What about the “SI = HME-1 IC50/cancer IC50” value (HME-1 cells; HME-1 normal cells against themselves (Table 3)) of the same compound?
Its value is 1.00.

And the pIC50 (HME-1 cells; HME-1 normal cells, 72 hrs continuous drug exposure, WST-1 (Table 1), read-out: Absolute IC50)?
The pIC50 was 4.74.

What about the “Potency range against cancer cells” value (cancer cell lines) of the same compound?
The value was “within the micromolar range”.

And the “SI = HME-1 IC50/cancer IC50” value (MIA PaCa-2 cells; MIA PaCa-2 (PaC) vs HME-1 (Table 3))?
The value was 0.40.

What about the pIC50 (MIA PaCa-2 cells; MIA PaCa-2 (PaC), 72 hrs, WST-1 (Table 1), read-out: Absolute IC50) of the same compound?
Its pIC50 is 4.34.

What about the “Maximal efficacy, cytotoxicity (%) at 100 μM” value (MIA PaCa-2 cells; MIA PaCa-2 (PaC), 72 hrs, WST-1 (Table 2)) of the same compound?
Its value is 77.65%.

What about the “SI = HME-1 IC50/cancer IC50” value (A2780 Cp cells; A2780 Cp (OvC) vs HME-1 (Table 3)) of the same compound?
Its value is 1.62.

What about the “Maximal efficacy, cytotoxicity (%) at 100 μM” value (A2780 Cp cells; A2780 Cp (OvC), 72 hrs, WST-1 (Table 2)) of the same compound?
The value was 74.61%.

And the pIC50 (A2780 Cp cells; A2780 Cp (OvC, cisplatin resistant), 72 hrs, WST-1 (Table 1), read-out: Absolute IC50)?
Its pIC50 is 4.95.

What about the “SI = HME-1 IC50/cancer IC50” value (NCI-H292 cells; NCI-H292 (NSCLC) vs HME-1 (Table 3)) of the same compound?
Its value is 0.70.

And the pIC50 (NCI-H292 cells; NCI-H292 (NSCLC), 72 hrs, WST-1 (Table 1), read-out: Absolute IC50)?
The pIC50 was 4.59.

And the “Maximal efficacy, cytotoxicity (%) at 100 μM” value (NCI-H292 cells; NCI-H292 (NSCLC), 72 hrs, WST-1 (Table 2))?
Its value is 63.26%.

What about the “SI = HME-1 IC50/cancer IC50” value (MDA-MB-231 cells; MDA-MB-231 (TNBC) vs HME-1 (Table 3)) of the same compound?
The value was 8.49.

And the pIC50 (MDA-MB-231 cells; MDA-MB-231 (TNBC), 72 hrs, WST-1 (Table 1), read-out: Absolute IC50)?
Its pIC50 is 5.67.

And the “Maximal efficacy, cytotoxicity (%) at 100 μM” value (MDA-MB-231 cells; MDA-MB-231 (TNBC), 72 hrs, WST-1 (Table 2))?
Its value is 89.12%.

What about the “SI = HME-1 IC50/cancer IC50” value (A2780 cells; A2780 (OvC) vs HME-1 (Table 3)) of the same compound?
Its value is 21.13.

And the pIC50 (A2780 cells; A2780 (OvC), 72 hrs, WST-1 (Table 1), read-out: Absolute IC50)?
The pIC50 was 6.07.

And the “Maximal efficacy, cytotoxicity (%) at 100 μM” value (A2780 cells; A2780 (OvC), 72 hrs, WST-1 (Table 2))?
The value was 87.34%.

And the “SI = HME-1 IC50/cancer IC50” value (LS 174T cells; LS 174T (CrC) vs HME-1 (Table 3))?
The value was 1.23.

What about the pIC50 (LS 174T cells; LS 174T (CrC), 72 hrs, WST-1 (Table 1), read-out: Absolute IC50) of the same compound?
The pIC50 was 4.83.

What about the “Maximal efficacy, cytotoxicity (%) at 100 μM” value (LS 174T cells; LS 174T (CrC), 72 hrs, WST-1 (Table 2)) of the same compound?
Its value is 53.72%.

With `COc1cccc2c1C(=O)c1c(O)c3c(c(O)c1C2=O)CC(O)(C(=O)CO)CC3OC1CC(NC(=O)C(CC(C)C)NC(=O)C(C)NC(=O)C(CC(C)C)NC(=O)CCNC(=O)CCC(=O)O)C(O)C(C)O1` [Suc-βALAL-dox, N-succinyl-beta-alanyl-L-leucyl-L-alanyl-L-leucyl-doxorubicin] as the compound, how does the “Times less toxic compared with unconjugated doxorubicin” value [2] read?
The value was “about 5 times”.

And the “Clinical benefit, share of evaluable patients” value ([3]; phase I clinical study (Delord et al., unpublished))?
The value was 59%.

What about the Cardiac adverse events ([3]; phase I clinical study, even at very high cumulative doses (2750 mg/m^2)) of the same compound?
Its Cardiac adverse events is “No drug-related, severe cardiac adverse events were reported”.

And the “Dose at which myelotoxicity occurred compared with free doxorubicin” value ([3]; phase I clinical study)?
Its value is “three times higher doses”.

And the “Cardiotoxicity compared with Dox” value [4]?
Its value is “significantly less cardiotoxic”.

And the “Times less toxic compared with unconjugated doxorubicin” value [5]?
The value was 3 times.
